Results on 40 compounds are retold here after PubChem BioAssay AID1033 (Sanford-Burnham Center for Chemical Genomics, 2008).

The assay concerns the target Chaperone protein DnaK (Escherichia coli (strain K12)) (UniProt P0A6Y8). Kind of assay: E. coli DnaK SBD ligand binding – biophysical, NMR, chaperone (AID 1033). The conditions noted are these: Purified DnaK SBD.

Activity calls are given as the source filed them. How the calls were made is not given here.

Chaperone protein DnaK (Escherichia coli (strain K12)), sequence (P0A6Y8 whole entry, looked up): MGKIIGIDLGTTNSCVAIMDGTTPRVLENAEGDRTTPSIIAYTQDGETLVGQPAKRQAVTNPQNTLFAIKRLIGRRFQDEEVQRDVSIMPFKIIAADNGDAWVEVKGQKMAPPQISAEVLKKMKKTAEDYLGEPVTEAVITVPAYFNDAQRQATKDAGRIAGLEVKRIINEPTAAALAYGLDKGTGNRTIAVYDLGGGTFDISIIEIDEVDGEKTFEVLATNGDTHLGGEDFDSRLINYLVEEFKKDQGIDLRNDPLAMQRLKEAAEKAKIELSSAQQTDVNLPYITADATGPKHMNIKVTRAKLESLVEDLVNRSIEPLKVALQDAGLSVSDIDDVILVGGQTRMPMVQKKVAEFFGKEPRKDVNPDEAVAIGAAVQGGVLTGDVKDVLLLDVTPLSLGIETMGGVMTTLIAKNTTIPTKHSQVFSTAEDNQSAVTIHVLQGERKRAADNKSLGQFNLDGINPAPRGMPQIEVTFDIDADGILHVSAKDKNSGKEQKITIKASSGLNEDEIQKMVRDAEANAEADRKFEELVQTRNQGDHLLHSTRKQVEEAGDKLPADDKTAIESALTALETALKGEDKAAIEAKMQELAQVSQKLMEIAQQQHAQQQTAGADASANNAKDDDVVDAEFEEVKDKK

Consider `CC(=O)c1cccc(NC(=O)NN2CCOCC2)c1`, for which the Kd (usually the equilibrium constant for the complex coming apart) was > 4 mM (inactive).

Consider `CCOc1ccc(-c2c(=O)n(O)c3ccccc3[n+]2[O-])cc1`, for which the Kd was > 4 mM (inactive).

With `Cn1ncc(NC(=O)Nc2ccc(F)cc2F)c1C(N)=O`, the Kd is > 4 mM (inactive).

For the compound `COc1ccc2c(=O)c(CC(=O)O)coc2c1`, the Kd was > 4 mM (inactive).

In the case of `COc1ccc(C2CC(=O)c3ccc(OC)cc3O2)cc1` (stereo not given), the Kd is > 4 mM (inactive).

On to `COc1ccc(-c2cc(=O)c3c(OC(C)=O)cc(OC(C)=O)cc3o2)cc1`, for which the Kd is > 4 mM (inactive).

On to `CC(=O)c1cc(-c2nc3ccccc3n2C)n(C)c1`, for which the Kd was > 4 mM (inactive).

In the case of `CC(C)c1c(O)c(-c2cc3c(c(C(C)C)c2O)CCC2C(C)(C)CCC[C@]32C)cc2c1CCC1C(C)(C)CCC[C@]21C` (stereo not given in full), the Kd was > 4 mM (inactive).

Turning to `CS(=O)(=O)N1CCN(C(=O)c2ccccc2)C1`, the Kd is > 4 mM (inactive).

As to `NC1=NC(=O)CC(C(=O)Nc2ccccc2)S1` (stereo not given), the Kd is > 4 mM (inactive).

For the compound `CC(=O)c1c(C)nc(-c2cccs2)n1O`, the Kd is > 4 mM (inactive).

As for `COc1c(CC=C(C)C)c2c(c3oc(=O)c(-c4ccc(O)cc4)c(O)c13)C=CC(C)(C)O2`, the Kd is > 4 mM (inactive).

With `N#Cc1ccccc1CSc1ccccn1`, the Kd was > 4 mM (inactive).

In the case of `CN1C2CC3C[C@H]1C(O3)C2O` (stereo not given in full), the Kd is > 4 mM (inactive).

Take `CCOC(=O)C1C(C=C(C)C)C1(C)C` (stereo not given): the Kd is > 4 mM (inactive).

For `CC(=O)/C=C\[C@@H]1[C@@]2(C)CCCC(C)(C)C2CC[C@@]1(C)O` (stereo not given in full), the Kd was > 4 mM (inactive).

Regarding `O=C(O)C1CSC(c2ccco2)N1` (stereo not given), the Kd is > 4 mM (inactive).

In the case of `CCOC(=O)c1ccc(F)c(F)c1`, the Kd is > 4 mM (inactive).

For `COc1cc2cc[n+]3cc4c(OC)c(OC)ccc4cc3c2cc1OC`, the Kd is > 4 mM (inactive).

With `Cc1ccc(C(=O)N2CCC(C(N)=O)CC2)cc1C`, the Kd was > 4 mM (inactive).

Take `CN(C)CCCN1CNC(=S)NC1`: the Kd is > 4 mM (inactive).

Take `c1ccc(-c2nnc(CNCc3ccco3)o2)cc1`: the Kd was > 4 mM (inactive).

For `C1CCN2C[C@@H]3C[C@H](CN4CCCC[C@@H]34)[C@H]2C1`, the Kd was > 4 mM (inactive).

Turning to `CC1CCC2(OC1)OC1CC3C4CC[C@H]5C[C@@H](O)CC[C@]5(C)C4CC(=O)[C@]3(C)C1C2C` (stereo not given in full), the Kd is > 4 mM (inactive).

`CN(C)c1oc(-c2ccccc2Cl)nc1C#N`: the Kd is > 4 mM (inactive).

As for `O=C(Nc1ccccc1)N1CCOCC1`, the Kd is > 4 mM (inactive).

As for `NCCc1c[nH]c2ccccc12`, the Kd is > 4 mM (inactive).

With `CC(C)(C)CC(=O)NC1=NCCS1`, the Kd is > 4 mM (inactive).

Turning to `COc1ccc(C(=O)O)cc1OC`, the Kd was > 4 mM (inactive).

With `O=C1CCCN1c1ccc(S(=O)O)cc1`, the Kd is > 4 mM (inactive).

As to `NC(=O)C1CCN(C2CC(=O)NC2=O)CC1` (stereo not given), the Kd was > 4 mM (inactive).

With `Cn1cnc2ccc([N+](=O)[O-])cc2c1=O`, the Kd was > 4 mM (inactive).

As for `CCOc1cccc(C(=O)c2ccc(O)c(O)c2O)c1`, the Kd was > 4 mM (inactive).

Consider `c1cnc(N2CCNCC2)nc1`, for which the Kd is > 4 mM (inactive).

For `c1ccc(CNc2ncnc3nc[nH]c23)nc1`, the Kd was > 4 mM (inactive).

For the compound `OCc1ncoc1-c1ccccc1`, the Kd is > 4 mM (inactive).

With `CC(C)CCCC(C)C1CCC2C3C[C@@H](O)[C@@]4(O)C[C@@H](O)CC[C@]4(C)C3CC[C@]12C` (stereo not given in full), the Kd is > 4 mM (inactive).

As for `c1ccc(Cc2nnc3sc(-c4ccccn4)nn23)cc1`, the Kd was > 4 mM (inactive).

On to `Cn1cnnc1SCC(=O)Nc1nccs1`, for which the Kd was > 4 mM (inactive).

As to `COc1ccc2ccc(=O)oc2c1`, the Kd is > 4 mM (inactive).
